Measurements taken from patent US20140309300A1, “Bicyclic Labdane Diterpenes for Use in the Treatment of TRPC6 Associated Diseases” (UNIVERSITAET LEIPZIG, priority 2011, published 2014).

How the values were obtained:
rat TRPV1 = biological target: T1, rat TRPV1 (Rattus norvegicus, UniProt O35433); experiment: Specificity test in HEKrTRPV1 cells (intracellular acidification, YFP fluorescence loss); assay type: cell-based; settings: activator 2 μM capsaicin; FIG. 1
T1 construct: expressed in transfected cells; host or cells: HEK293 (line rTRPV1)
Protocol: (§1) HEK293 (ATCC CRL-1573) cells were grown in Earle's Minimum Essential Medium (MEM) supplemented with 10 Vol.-% fetal calf serum, 2 mM (mmol/l) L-glutamine, 100 units/ml penicillin and 0.1 mg/ml streptomycin. Cells were seeded in 35-mm culture dishes, grown for 24 h, and transfected at 80% confluence with 2 μg of plasmid DNA encoding a C-terminally YFP-tagged human TRPC6 and 4 μl of Fugene HD reagent (Roche) in 100 μl serum-free medium. To select stably transfected HEKhTRPC6-YFP clones, 1 mg/ml geneticin (G418) was added to the medium. […] To verify functional expression, different clones were isolated and tested by single-cell [Ca^2+]i imaging experiments. […]
(§2) To assess the effect of bicyclic labdane diterpenes on calcium transport via TRP channels, larixol and larixol acetate was added to cell lines from example 1. Blocking of the respective TRP channel was determined by determining increases in [Ca^2+]i in suspensions. To activate the TRP channels, an activator of the respective channel was added, and changes in fluorescence intensity of intracellularly loaded fluo-4 was determined with a multiwell plate reader device (Polarstar Omega, BMG Labtech). For HEKrTRPV1 cells, assessment of activation was performed by monitoring the intracellular acidification, which results in fluorescence loss of co-expressed YFP. […]

human TRPM3 = biological target: T2, human TRPM3 (Homo sapiens, UniProt Q9HCF6); experiment: Specificity test, calcium influx in hTRPM3 HEK293 cells; assay type: cell-based; settings: FIG. 1
T2 construct: expressed in transfected cells; host or cells: HEK293 (line hTRPM3)
Protocol: as §1, §2

other TRP channels = experiment: Specificity tests in cell lines overexpressing other TRP channels; assay type: cell-based; settings: FIG. 1
Protocol: as §1, §2

human TRPM2 = biological target: T3, human TRPM2 (Homo sapiens, UniProt O94759); experiment: Specificity test, calcium influx in hTRPM2 HEK293 cells; assay type: cell-based; settings: activator 1 mM H2O2; FIG. 1
T3 construct: expressed in transfected cells; host or cells: HEK293 (line hTRPM2)
Protocol: as §1, §2

TRPC6 [1] = biological target: T4, TRPC6 (Homo sapiens, UniProt Q9Y210); experiment: Calcium influx (fluo-4 [Ca2+]i) in TRPC6-expressing HEK293 cells; assay type: cell-based; settings: 0.01 to 20 μM; activated with 50 μM OAG or GPCR agonist mix; FIG. 1
T4 construct: expressed in transfected cells
T4 sequence (Q9Y210 1-931): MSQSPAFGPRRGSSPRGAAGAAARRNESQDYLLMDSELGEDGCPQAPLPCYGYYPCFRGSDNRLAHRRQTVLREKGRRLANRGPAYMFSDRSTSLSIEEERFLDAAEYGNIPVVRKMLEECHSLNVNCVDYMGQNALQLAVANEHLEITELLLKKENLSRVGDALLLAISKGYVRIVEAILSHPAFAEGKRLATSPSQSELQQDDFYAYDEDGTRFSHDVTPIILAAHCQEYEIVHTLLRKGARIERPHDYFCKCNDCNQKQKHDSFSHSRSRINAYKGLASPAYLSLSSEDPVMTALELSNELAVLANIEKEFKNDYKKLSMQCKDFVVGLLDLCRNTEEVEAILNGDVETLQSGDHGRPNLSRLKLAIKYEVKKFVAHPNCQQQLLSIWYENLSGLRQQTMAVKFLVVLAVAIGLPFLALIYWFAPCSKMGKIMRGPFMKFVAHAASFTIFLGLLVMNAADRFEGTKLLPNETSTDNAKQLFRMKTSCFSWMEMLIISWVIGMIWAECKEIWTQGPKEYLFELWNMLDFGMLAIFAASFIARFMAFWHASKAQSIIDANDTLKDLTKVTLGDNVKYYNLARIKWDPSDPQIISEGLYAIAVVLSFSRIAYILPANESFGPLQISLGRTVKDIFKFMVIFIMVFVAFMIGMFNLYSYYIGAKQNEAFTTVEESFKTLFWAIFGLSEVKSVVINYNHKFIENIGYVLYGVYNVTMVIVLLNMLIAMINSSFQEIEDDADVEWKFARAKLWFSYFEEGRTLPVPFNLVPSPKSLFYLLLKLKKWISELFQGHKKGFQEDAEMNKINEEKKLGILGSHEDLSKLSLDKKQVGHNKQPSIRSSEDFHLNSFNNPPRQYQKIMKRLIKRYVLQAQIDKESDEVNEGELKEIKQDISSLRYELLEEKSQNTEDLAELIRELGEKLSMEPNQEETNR
Protocol: as §1, §2

human TRPM8 = biological target: T5, human TRPM8 (Homo sapiens, UniProt Q7Z2W7); experiment: Specificity test, calcium influx in hTRPM8 HEK293 cells; assay type: cell-based; settings: FIG. 1
T5 construct: expressed in transfected cells; host or cells: HEK293 (line hTRPM8)
Protocol: as §1, §2

HEK293 cells = experiment: Propidium iodide exclusion cytotoxicity assay; assay type: cell-based, human; settings: concentrations up to 10 μM, 24 h incubation
Protocol: FIG. 3 Larixol and larixol acetate to not show a cytotoxic effect on HEK293 cells. The cellular integrity was determined by exclusion of the DNA-binding fluorescent dye propidium iodide (PI).
To assess possible cytotoxic effects of the larixol and larixol acetate, a propidium iodide exclusion assay was performed. Cells were grown in 24 well plates for 18 h and then incubated with the indicated compounds for another 24 h (FIG. 3). Propidium iodide (2 μg/ml, Invitrogen) was added, and the fluorescence (excitation at 544 nm and detection at 620 nm) was followed. To obtain a maximum reference value, 0.2% Triton X-100 was added to some samples prior to propidium iodide injection. The following controls were tested: • negative controls: HBS buffer (“control”), or 0.1% DMSO in HBS buffer, added to the growth medium in the same volume as for 10 μM larixol (“0.1% DMSO”). • positive controls: 2 μm staurosporine, 50 μm digitonin

lung edema formation = experiment: Ischemia-reperfusion-associated lung edema formation, rabbit lung transplantation model; assay type: in vivo; settings: 5 μM in Perfadex and Tyrode solutions, explanted rabbit lungs
Protocol: FIG. 5 Inhibition of ischemia-reperfusion-associated lung edema formation by larixol acetate. Rabbit lungs were explanted and extracorporally perfused with Perfadex solution and ventilated under oxygenized conditions (open symbols) or under hypoxic conditions (filled symbols). Lungs were then placed on ice for 2 h, and reperfused for 90 min with tyrode solution. Upper panel: control experiments without larixol acetate, lower panel: similar experiments, but with Perfadex® and tyrode solutions that were supplemented with 5 μM larixol acetate. Increases in the lung wet weight indicate edema formation. Data represent means and S.E.M. (Standard error of the mean) of 6 individual experiments for each treatment group.
To assess whether larixol acetate mediated TRPC6 block can prevent endothelial dysfunction, the effect of larixol acetate was tested on lung edema formation in a rabbit lung transplantation model.
New Zealand white rabbits were anesthetized and subjected to tracheostomy. Animals were mechanically ventilated with room air (40 breaths min^−1) The thorax was opened by midline sternotomy, pulmonary arteries and the left atrium were cannulated, the heart-lung-block was excised and transferred to a thermostatted artificial thorax chamber. […] The wet weight of the lungs was recorded during the whole procedure. […]

[2] = system: hypoxia-induced pulmonary vasoconstriction (HPV); experiment: Hypoxia-induced pulmonary vasoconstriction (HPV) in isolated perfused mouse lungs; assay type: in vivo; settings: 5 μM in perfusion solution; isolated perfused C57BL/6 mouse lungs; 1% O2
Protocol: FIG. 4 Inhibition of hypoxia-induced pulmonary vasoconstriction (HPV) by larixol acetate.
To assess whether the TRPC6 blocking action of larixol acetate is potent to prevent HPV, larixol acetate was supplied in an induced mouse model of HPV.
Anesthetized, male adult C57BL/6 mice were subjected to tracheostomy, followed by volume-controlled normoxic ventilation. Midsternal thoracotomy was performed, and two cannulas (1 mm inner diameter) were inserted into the pulmonary artery and left atrium, respectively. Lungs were then perfused at a constant flow at 37° C. with a Hanks' Balanced Salt Solution (Sigma-Aldrich) containing 5% bovine serum albumin (Sigma-Aldrich) and 5% dextran (Sigma-Aldrich) at pH of 7.4. Indomethacin (30 μM) and N^G-nitro-L-arginine methylester (1 mM) were added to the perfusate to inhibit endogenous prostaglandin and nitric oxide synthesis.

TRPC6 [3] = biological target: T4, TRPC6; experiment: Electrophysiological whole-cell recordings of TRPC6-mediated current; assay type: cell-based
Protocol: FIG. 2 Larixol acetate acts from the outside of the cells. A: Electrophysiological whole-cell recordings were performed to determine the TRPC6-mediated current upon direct stimulation with 50 μM OAG or by activating heterotrimeric G-proteins with intracellularly applied AlF4 (50 μM), to trigger phospholipase C activation, resulting in the formation of endogenous diacylglycerols. To expose the cytosolic side of the channel protein to larixol acetate, larixol acetate was added to the intracellular solution (hatched bars and filled bars). Control solutions without larixol acetate (open bars) were measured in parallel.
TRPC6-expressing cells were seeded on glass coverslips, mounted onto the stage of an inverted microscope, and contacted with a borosilicate glass pipet filled with an intracellular solution. After reaching a gigaohm seal, the whole-cell configuration was obtained by gently applying a negative pressure at the pipet. Whole-cell currents were measured in the voltage clamped mode with a holding potential of −60 mV, and normalized for the cell size by dividing current amplitudes by the cellular capacitance (pA/pF). TRPC6 was activated either by adding OAG to the bath solution or by including 50 μM AlF4^− in the pipet solution.
In some experiments, the pipet solution was additionally supplemented with 1 μM larixol acetate to apply the modulator intracellularly (FIG. 2A, “inside”).

T1 sequence (O35433 whole entry): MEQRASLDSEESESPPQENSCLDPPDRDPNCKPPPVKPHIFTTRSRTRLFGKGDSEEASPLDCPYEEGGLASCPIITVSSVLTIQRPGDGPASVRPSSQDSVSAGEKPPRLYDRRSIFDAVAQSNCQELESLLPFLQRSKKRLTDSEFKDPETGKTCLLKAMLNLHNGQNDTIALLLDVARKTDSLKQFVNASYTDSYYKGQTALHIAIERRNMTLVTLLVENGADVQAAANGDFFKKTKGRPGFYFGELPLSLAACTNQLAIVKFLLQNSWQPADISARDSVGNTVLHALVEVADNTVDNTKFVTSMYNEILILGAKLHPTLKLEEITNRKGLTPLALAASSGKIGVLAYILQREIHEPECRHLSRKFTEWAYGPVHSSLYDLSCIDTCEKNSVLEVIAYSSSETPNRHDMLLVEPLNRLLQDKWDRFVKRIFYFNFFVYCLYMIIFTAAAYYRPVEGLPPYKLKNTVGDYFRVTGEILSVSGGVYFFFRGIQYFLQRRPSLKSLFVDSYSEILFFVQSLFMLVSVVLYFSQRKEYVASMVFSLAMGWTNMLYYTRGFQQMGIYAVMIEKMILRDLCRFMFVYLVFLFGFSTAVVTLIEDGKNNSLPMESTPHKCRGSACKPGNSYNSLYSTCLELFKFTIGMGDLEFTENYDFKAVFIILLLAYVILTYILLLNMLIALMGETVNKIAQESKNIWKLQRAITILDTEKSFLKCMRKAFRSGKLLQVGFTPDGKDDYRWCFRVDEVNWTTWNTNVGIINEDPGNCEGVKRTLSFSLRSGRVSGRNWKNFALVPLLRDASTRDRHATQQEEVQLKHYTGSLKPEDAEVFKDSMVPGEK
T3 sequence (O94759 whole entry): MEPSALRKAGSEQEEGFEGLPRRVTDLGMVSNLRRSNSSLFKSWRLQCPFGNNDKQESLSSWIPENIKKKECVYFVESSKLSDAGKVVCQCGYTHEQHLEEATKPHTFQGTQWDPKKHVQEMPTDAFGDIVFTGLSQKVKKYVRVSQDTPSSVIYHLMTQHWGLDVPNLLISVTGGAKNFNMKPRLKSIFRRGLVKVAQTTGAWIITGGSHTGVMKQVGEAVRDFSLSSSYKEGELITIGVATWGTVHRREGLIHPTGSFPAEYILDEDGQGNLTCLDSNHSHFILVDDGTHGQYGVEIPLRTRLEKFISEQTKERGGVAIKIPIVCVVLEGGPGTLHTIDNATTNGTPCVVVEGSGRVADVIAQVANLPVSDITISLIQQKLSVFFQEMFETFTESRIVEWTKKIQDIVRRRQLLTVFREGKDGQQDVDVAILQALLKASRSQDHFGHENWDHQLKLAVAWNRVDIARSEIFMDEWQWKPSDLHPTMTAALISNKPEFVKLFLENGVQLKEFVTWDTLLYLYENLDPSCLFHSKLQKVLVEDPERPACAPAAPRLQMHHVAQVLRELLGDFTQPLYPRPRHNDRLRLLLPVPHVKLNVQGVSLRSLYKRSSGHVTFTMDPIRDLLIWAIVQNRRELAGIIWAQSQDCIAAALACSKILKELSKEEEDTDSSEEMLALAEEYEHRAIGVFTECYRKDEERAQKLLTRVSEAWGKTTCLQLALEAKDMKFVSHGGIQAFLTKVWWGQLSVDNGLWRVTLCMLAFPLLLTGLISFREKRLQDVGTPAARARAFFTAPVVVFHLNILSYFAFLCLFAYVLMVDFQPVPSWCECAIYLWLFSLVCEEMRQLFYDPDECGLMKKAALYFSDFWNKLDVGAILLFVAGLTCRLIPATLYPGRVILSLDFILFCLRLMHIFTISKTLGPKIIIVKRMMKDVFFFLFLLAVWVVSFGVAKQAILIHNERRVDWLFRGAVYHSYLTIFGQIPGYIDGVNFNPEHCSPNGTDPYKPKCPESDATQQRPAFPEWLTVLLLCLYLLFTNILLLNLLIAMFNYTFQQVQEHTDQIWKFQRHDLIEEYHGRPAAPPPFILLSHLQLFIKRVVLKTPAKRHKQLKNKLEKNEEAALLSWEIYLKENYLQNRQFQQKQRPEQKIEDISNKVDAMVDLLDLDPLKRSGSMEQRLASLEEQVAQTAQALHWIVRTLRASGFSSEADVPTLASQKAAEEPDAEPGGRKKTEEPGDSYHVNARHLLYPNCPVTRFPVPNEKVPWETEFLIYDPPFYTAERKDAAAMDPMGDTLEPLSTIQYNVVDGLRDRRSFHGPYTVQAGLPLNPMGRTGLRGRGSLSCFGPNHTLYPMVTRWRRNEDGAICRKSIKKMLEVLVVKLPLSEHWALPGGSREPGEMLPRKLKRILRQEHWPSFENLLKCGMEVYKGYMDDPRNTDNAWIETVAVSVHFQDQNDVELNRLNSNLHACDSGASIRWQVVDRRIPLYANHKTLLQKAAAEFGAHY
T2 sequence (Q9HCF6 whole entry): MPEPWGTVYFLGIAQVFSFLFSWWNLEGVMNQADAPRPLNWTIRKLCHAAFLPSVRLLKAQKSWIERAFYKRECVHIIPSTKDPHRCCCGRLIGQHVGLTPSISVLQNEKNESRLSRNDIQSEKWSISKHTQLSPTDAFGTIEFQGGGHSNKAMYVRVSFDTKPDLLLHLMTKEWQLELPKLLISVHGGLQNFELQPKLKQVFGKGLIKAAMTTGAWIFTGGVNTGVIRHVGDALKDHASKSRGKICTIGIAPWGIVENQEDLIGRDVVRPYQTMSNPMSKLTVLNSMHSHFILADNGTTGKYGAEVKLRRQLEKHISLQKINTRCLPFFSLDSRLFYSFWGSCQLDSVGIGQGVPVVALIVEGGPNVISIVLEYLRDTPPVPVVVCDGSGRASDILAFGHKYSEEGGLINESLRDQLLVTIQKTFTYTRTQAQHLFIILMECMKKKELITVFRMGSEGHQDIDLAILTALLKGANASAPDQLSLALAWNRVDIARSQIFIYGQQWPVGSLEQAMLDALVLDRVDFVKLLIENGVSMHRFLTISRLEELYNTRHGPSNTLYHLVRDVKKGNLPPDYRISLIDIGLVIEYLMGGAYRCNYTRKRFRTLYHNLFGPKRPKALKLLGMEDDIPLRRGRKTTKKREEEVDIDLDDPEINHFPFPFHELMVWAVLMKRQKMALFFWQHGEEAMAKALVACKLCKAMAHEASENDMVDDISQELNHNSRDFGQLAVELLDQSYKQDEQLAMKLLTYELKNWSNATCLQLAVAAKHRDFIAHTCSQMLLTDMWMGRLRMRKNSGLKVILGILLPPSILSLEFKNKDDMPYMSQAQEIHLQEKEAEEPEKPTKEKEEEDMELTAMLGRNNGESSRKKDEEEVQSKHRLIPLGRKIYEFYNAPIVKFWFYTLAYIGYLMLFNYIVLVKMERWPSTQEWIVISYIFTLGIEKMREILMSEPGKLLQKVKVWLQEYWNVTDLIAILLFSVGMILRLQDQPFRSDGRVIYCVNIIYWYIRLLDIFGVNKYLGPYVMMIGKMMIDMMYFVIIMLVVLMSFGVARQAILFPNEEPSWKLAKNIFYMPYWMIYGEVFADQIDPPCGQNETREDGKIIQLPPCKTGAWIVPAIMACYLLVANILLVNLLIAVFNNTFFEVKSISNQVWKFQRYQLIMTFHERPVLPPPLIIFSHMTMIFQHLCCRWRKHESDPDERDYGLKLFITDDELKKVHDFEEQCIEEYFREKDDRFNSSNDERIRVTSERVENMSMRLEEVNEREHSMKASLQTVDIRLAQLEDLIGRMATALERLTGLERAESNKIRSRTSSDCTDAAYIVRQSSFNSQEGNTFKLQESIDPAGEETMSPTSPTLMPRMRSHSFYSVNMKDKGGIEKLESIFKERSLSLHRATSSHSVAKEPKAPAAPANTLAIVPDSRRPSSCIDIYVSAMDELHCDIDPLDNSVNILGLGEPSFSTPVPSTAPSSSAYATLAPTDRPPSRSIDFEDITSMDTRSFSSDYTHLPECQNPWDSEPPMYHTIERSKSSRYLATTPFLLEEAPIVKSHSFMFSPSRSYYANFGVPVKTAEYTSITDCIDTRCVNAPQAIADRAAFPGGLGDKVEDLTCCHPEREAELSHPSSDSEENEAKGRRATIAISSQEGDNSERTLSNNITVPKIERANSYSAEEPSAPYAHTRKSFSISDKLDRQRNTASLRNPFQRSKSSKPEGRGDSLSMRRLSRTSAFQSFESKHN

Compound	effect on TRPV1 (rat TRPV1)	effect on TRPM3 (human TRPM3)	inhibition of other TRP channels (other TRP channels)	effect on TRPM2 (human TRPM2)	inhibition of calcium influx via TRPC6 (TRPC6 [1])	effect on TRPM8 (human TRPM8)	cytotoxic effect (propidium iodide exclusion) (HEK293 cells)	increase in lung wet weight (edema formation) under hypoxic treatment (lung edema formation)	hypoxia-induced increase in pulmonary artery pressure (PAP) [2]	suppression of OAG- or AlF4-induced TRPC6 activation, intracellular exposure (inside, pipet solution) (TRPC6 [3]; 1 μM in pipet solution)	block of TRPC6 whole-cell current, blocker applied via the bath solution (outside) (TRPC6 [3]; 1 μM, OAG or AlF4- activation, holding potential -60 mV)
C=C[C@@](C)(O)CC[C@H]1C(=C)C[C@H](O)[C@H]2C(C)(C)CCC[C@]12C [larixol]	not affected	not affected	not, or only poorly, inhibited	not affected	selectively inhibit calcium influx via TRPC6	not affected					
larixol acetate	not affected	not affected	not, or only poorly, inhibited	not affected	selectively inhibit calcium influx via TRPC6	not affected	no cytotoxic effect	prevented the increase in lung wet weight	completely abrogated	not sufficient to suppress	efficient block
